The source made the active and inactive calls. The calls are words filed in the database; no cut-off is given here.
What was measured:
[1] = Toxicity in BALB/c mouse xenografted with […] cells assessed as weight loss at 20 to 40 mg/kg, ip administered for 14 days; assay type: organism-based; conditions: in vivo, 336 h, dose 20-40 mg/kg, time 14 day
CT26 = test: Antitumor activity against […] cells xenografted in BALB/c mouse assessed as tumor growth inhibition dosed ip for 14 days; assay type: functional, organism-based; conditions: time 14.0 day
[2] = Antitumor activity against […] cells xenografted in BALB/c mouse assessed as tumor growth inhibition at 40 mg/kg, ip administered for 14 days relative to control; assay type: functional; conditions: 336 h, time 14 day, read-out: TGI
[3] = Antitumor activity against […] cells xenografted in BALB/c mouse assessed as tumor growth inhibition at 20 mg/kg, ip administered for 14 days relative to control; assay type: functional; conditions: 336 h, time 14 day, read-out: TGI
[4] = target: Tyrosine-protein kinase JAK1 (Homo sapiens) (UniProt P23458); test: Inhibition of JAK1 (unknown origin) at 500 nM relative to control
Chain of Tyrosine-protein kinase JAK1 (Homo sapiens) (P23458 whole entry): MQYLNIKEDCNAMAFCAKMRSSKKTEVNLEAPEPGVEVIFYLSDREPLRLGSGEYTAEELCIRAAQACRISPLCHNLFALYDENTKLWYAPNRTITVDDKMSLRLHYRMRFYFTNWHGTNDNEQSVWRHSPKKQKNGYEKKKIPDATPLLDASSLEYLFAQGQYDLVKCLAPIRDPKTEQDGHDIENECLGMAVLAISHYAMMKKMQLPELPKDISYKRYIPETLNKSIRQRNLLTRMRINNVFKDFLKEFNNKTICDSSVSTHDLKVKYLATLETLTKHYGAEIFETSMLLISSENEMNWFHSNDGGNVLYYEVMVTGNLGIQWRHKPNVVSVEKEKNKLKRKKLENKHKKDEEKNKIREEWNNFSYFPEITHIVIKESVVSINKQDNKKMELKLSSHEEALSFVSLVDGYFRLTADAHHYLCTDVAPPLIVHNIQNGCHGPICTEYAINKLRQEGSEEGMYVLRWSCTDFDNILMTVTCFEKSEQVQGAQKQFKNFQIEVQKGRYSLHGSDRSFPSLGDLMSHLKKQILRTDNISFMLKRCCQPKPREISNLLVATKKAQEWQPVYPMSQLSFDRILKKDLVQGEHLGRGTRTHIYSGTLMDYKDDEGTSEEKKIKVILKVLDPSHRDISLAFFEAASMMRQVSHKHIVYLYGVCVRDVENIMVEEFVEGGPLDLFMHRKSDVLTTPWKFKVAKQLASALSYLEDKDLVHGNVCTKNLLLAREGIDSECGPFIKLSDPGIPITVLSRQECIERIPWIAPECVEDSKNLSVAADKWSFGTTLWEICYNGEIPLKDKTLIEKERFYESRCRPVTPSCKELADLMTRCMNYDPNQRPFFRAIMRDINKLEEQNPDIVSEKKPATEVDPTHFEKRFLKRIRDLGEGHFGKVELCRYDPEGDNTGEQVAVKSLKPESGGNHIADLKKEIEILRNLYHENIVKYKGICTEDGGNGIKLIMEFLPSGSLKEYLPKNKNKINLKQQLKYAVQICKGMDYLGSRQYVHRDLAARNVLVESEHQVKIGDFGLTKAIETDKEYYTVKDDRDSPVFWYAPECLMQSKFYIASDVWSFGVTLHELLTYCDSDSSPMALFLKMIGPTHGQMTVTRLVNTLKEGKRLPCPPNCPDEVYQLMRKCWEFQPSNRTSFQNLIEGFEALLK

[5] = target: Tyrosine-protein kinase BTK (Homo sapiens) (UniProt Q06187); test: Inhibition of BTK (unknown origin) at 500 nM relative to control
Chain of Tyrosine-protein kinase BTK (Homo sapiens) (Q06187 whole entry): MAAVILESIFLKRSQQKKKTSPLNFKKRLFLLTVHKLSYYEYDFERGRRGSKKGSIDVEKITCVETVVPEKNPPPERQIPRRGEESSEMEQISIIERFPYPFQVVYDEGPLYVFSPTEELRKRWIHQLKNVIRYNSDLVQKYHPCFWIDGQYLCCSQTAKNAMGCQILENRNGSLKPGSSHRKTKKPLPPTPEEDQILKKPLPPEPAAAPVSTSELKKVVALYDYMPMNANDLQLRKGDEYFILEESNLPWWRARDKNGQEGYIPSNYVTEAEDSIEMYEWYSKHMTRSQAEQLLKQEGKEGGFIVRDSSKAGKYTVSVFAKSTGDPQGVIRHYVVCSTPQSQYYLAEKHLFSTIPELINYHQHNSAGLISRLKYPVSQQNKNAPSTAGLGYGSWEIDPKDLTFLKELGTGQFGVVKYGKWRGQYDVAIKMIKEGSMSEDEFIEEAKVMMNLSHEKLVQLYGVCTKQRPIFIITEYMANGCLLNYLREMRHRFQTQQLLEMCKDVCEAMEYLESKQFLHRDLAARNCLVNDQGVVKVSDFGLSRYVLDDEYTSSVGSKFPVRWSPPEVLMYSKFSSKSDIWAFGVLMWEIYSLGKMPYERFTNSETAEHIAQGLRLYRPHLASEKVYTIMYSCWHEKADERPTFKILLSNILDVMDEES

[6] = target: Cyclin-dependent kinase 2 (Homo sapiens) (UniProt P24941); test: Inhibition of CDK2 (unknown origin) at 500 nM relative to control
[7] = target: Cyclin-dependent kinase 1 (Homo sapiens) (UniProt P06493); test: Inhibition of CDK1 (unknown origin) at 500 nM relative to control
Chain of Cyclin-dependent kinase 1 (Homo sapiens) (P06493 whole entry, looked up): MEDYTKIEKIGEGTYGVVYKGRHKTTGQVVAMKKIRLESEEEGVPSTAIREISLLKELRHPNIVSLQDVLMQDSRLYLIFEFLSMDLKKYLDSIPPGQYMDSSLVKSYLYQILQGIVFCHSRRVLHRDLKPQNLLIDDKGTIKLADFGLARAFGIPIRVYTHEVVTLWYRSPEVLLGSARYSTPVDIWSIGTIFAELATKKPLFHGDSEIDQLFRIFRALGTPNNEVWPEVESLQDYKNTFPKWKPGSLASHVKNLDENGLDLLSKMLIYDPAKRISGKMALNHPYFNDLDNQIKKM

[8] = target: AMP-activated protein kinase, AMPK (Homo sapiens) (UniProt P54646+O43741+P54619+Q9UGJ0+Q9Y478+Q13131+Q9UGI9); test: Inhibition of AMPK (unknown origin) at 500 nM relative to control; assay type: protein-complex assay
[9] = target: Macrophage colony-stimulating factor 1 receptor (Homo sapiens) (UniProt P07333); test: Inhibition of CSF1R (unknown origin) at 500 nM relative to control
[10] = target: Receptor-type tyrosine-protein kinase FLT3 (Homo sapiens) (UniProt P36888); test: Inhibition of FLT3 (unknown origin) at 500 nM relative to control
Chain of Receptor-type tyrosine-protein kinase FLT3 (Homo sapiens) (P36888 whole entry): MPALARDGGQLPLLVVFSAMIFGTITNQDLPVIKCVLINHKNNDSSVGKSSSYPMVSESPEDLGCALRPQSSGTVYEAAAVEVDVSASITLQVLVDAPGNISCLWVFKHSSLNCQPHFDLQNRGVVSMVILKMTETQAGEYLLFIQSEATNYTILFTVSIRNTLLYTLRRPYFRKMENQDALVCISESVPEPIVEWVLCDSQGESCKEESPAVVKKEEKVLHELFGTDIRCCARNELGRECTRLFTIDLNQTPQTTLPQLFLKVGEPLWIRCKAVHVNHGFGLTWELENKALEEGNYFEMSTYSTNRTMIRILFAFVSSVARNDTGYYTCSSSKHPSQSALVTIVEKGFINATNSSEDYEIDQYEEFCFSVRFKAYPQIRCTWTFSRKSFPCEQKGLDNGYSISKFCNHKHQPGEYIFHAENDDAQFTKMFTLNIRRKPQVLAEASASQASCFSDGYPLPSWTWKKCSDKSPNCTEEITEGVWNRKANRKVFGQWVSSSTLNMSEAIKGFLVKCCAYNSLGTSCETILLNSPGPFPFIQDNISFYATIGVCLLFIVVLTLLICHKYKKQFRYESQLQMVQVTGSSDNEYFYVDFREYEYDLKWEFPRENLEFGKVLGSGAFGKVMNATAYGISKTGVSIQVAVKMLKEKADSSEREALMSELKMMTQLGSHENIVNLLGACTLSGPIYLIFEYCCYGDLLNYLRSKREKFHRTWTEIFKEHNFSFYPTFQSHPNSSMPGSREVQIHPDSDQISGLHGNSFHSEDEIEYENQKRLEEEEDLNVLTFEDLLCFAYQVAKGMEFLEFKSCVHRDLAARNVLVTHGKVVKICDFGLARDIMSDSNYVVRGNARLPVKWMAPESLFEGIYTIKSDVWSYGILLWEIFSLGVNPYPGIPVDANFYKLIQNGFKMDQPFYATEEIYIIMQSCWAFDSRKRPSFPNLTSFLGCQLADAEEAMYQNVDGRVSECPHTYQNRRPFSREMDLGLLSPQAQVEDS

[11] = target: T1, MAP kinase-interacting serine/threonine-protein kinase 2 (Homo sapiens, UniProt Q9HBH9); test: Inhibition of MNK2 (unknown origin) at 500 nM relative to control
Target sequence in this assay (Q9HBH9 whole entry, looked up): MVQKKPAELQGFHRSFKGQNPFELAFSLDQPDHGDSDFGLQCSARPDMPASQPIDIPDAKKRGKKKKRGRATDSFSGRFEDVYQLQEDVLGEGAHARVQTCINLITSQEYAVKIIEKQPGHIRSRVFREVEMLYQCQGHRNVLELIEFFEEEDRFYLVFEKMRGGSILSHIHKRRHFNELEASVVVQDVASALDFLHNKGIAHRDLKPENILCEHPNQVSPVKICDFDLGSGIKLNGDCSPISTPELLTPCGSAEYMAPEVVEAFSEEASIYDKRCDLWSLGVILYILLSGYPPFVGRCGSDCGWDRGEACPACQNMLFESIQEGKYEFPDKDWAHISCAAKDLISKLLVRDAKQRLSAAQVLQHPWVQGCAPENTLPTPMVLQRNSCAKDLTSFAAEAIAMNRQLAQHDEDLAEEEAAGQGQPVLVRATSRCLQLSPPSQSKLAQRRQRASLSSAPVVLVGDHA

[12] = target: T2, Interleukin-1 receptor-associated kinase 4 (Homo sapiens) (UniProt Q9NWZ3); test: Inhibition of IRAK4 (unknown origin) at 500 nM relative to control
T2 sequence (whole entry): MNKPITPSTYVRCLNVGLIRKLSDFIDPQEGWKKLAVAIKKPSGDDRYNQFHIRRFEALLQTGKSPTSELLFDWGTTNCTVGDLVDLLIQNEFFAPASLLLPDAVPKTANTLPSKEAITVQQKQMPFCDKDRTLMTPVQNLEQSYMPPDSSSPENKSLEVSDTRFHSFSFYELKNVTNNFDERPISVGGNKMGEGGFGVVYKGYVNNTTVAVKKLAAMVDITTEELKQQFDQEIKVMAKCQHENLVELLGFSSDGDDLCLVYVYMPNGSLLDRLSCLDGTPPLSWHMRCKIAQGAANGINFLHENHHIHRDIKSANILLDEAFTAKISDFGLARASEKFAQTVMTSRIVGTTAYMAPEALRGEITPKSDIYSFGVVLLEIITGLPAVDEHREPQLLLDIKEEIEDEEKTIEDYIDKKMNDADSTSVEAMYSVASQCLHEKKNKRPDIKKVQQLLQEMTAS

[13] = target: T3, MAP kinase-interacting serine/threonine-protein kinase 1 (Homo sapiens, UniProt Q9BUB5); test: Inhibition of MNK1 (unknown origin) at 500 nM relative to control
Target sequence in this assay (Q9BUB5 whole entry, looked up): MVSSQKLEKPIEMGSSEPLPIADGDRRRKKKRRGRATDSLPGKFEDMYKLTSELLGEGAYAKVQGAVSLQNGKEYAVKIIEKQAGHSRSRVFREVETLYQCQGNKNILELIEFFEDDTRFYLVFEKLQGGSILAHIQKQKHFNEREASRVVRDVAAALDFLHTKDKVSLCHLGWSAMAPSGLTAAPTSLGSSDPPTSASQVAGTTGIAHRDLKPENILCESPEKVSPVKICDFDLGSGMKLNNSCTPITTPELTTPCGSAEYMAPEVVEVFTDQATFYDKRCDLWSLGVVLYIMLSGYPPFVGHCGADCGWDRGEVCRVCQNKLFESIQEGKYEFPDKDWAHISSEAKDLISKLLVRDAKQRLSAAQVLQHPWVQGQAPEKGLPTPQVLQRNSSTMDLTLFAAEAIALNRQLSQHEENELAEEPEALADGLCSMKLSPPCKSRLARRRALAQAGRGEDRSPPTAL

[14] = target: T4, MAP kinase-interacting serine/threonine-protein kinase 1/2 (Homo sapiens) (UniProt Q9HBH9+Q9BUB5); test: Inhibition of MNK1/MNK2 in […] cells assessed as reduction in eIF4E phosphorylation at 1 uM incubated for 24 hrs by Western blot analysis relative to control; assay type: cell-based
[15] = target: T4, MAP kinase-interacting serine/threonine-protein kinase 1/2 (Homo sapiens); test: Inhibition of MNK1/MNK2 in […] cells assessed as reduction in eIF4E phosphorylation incubated for 24 hrs by Western blot analysis; assay type: cell-based
[16] = Antiproliferative activity against […] cells assessed as reduction in cell viability at 20 uM incubated for 72 hrs by MTT assay relative to control; assay type: functional, Mus musculus
MDA-MB-435 = test: Antiproliferative activity against human MDA-MB-435 cells assessed as reduction in cell viability at 20 uM incubated for 72 hrs by MTT assay relative to control; assay type: functional
HCT-116 = test: Antiproliferative activity against human HCT-116 cells assessed as reduction in cell viability at 20 uM incubated for 72 hrs by MTT assay relative to control; assay type: functional
[17] = target: T4, MAP kinase-interacting serine/threonine-protein kinase 1/2 (Homo sapiens); test: Inhibition of MNK1/MNK2 in […] cells assessed as reduction in eIF4E level at 0.25 to 1 incubated for 24 hrs by Western blot analysis; assay type: cell-based; conditions: dose microM 0.25-1, time 24.0 hrs
A549 = test: Antiproliferative activity against human A549 cells assessed as reduction in cell viability incubated at 20 uM for 72 hrs by MTT assay relative to control; assay type: functional
TMD8 = test: Antiproliferative activity against human TMD8 cells assessed as reduction in cell viability incubated for 72 hrs by MTT assay; assay type: functional, cell-based; conditions: TMD8, 72 h
K562 = test: Antiproliferative activity against human K562 cells assessed as reduction in cell viability incubated for 72 hrs by MTT assay; assay type: functional, cell-based; conditions: K562, 72 h
MV4-11 = test: Antiproliferative activity against human MV4-11 cells assessed as reduction in cell viability incubated for 72 hrs by MTT assay; assay type: functional, cell-based; conditions: MV4-11, 72 h
[18] = target: T3, MAP kinase-interacting serine/threonine-protein kinase 1; test: (§1) Potency index, ratio of IC50 of eFT508 to IC50 of compound for inhibition of recombinant human N-terminal DYKDDDDK-tagged MNK1(1 to 424 residues) expressed in baculovirus expression system using TATKSGSTTKNR as substrate preincubated for 10 mins followed by ATP addition and measured after 40 mins by luminescence based assay; conditions: time 50.0 min
Target sequence in this assay (Q9BUB5 whole entry, looked up): as above

[19] = target: T1, MAP kinase-interacting serine/threonine-protein kinase 2; test: Inhibition of MNK2 (unknown origin) at 100 nM incubated for 60 mins by HTRF assay
Target sequence in this assay (Q9HBH9 whole entry, looked up): as the sequence (Q9HBH9 whole entry, looked up) above

[20] = target: T1, MAP kinase-interacting serine/threonine-protein kinase 2; test: as §1, with “GST-tagged MNK2 (1” for “DYKDDDDK-tagged MNK1(1”, “465” for “424”; conditions: time 50.0 min
Target sequence in this assay (Q9HBH9 whole entry, looked up): as above

[21] = target: T3, MAP kinase-interacting serine/threonine-protein kinase 1; test: Inhibition of MNK1 (unknown origin) at 100 nM incubated for 60 mins by HTRF assay
Target sequence in this assay (Q9BUB5 whole entry, looked up): as the sequence (Q9BUB5 whole entry, looked up) above

[22] = target: T1, MAP kinase-interacting serine/threonine-protein kinase 2; test: Inhibition of recombinant human N-terminal GST-tagged MNK2 (1 to 465 residues) expressed in baculovirus expression system using TATKSGSTTKNR as substrate preincubated for 10 mins followed by ATP addition and measured after 40 mins by luminescence based assay
Target sequence in this assay (Q9HBH9 whole entry): as the sequence (Q9HBH9 whole entry, looked up) above

[23] = target: T3, MAP kinase-interacting serine/threonine-protein kinase 1; test: Inhibition of recombinant human N-terminal DYKDDDDK-tagged MNK1(1 to 424 residues) expressed in baculovirus expression system using TATKSGSTTKNR as substrate preincubated for 10 mins followed by ATP addition and measured after 40 mins by luminescence based assay
Target sequence in this assay (Q9BUB5 whole entry): as the sequence (Q9BUB5 whole entry, looked up) above

For Cc1cc(Nc2cc(N3CCN(CCCN(C)C)CC3)ncn2)c(=O)n2c1C(=O)NC21CCCCC1, the Activity [1] was “Non-Toxic”, the TGI (CT26) was “Dose-dependent effect” and the inhibition in vivo at 40 mg/kg [2] was 60.4%. For the same compound, the inhibition in vivo at 20 mg/kg [3] was 41.4%, the inhibition [4] was 6% and the inhibition [5] was 3%. It also gave an inhibition [6] of 7%, an inhibition [7] of 4% and an inhibition [8] of 11%. The inhibition [9] was 6%, the inhibition [10] was 9% and the inhibition [11] was 103%. For the same compound, the inhibition [12] was 21%, the inhibition [13] was 96% and the inhibition [14] was 100%. For the same compound, the inhibition [15] was “Dose-dependent effect”, the inhibition at 20 µM [16] was 58.3% and the inhibition at 20 µM (MDA-MB-435) was 49%. For the same compound, the inhibition at 20 µM (HCT-116) was 42.9%, the inhibition [17] was “inactive” and the inhibition at 20 µM (A549) was 41.3%. For the same compound, the IC50 (TMD8) was 910 nM, the IC50 (K562) was 11700 nM and the IC50 (MV4-11) was 10000 nM. It also gave a Ratio IC50 [18] of 2, an inhibition [19] of 91.2% and a Ratio IC50 [20] of 2. The inhibition [21] was 76.5%, the IC50 [22] was 6.1 nM and the IC50 [23] was 7 nM.
